US20220235043A1, “SUBSTITUTED SULFONAMIDE PYRROLOPYRIDINES AS JAK INHIBITORS” (ACLARIS THERAPEUTICS, INC., priority 2019, published 2022)

Experiments:
[1] = target: T1, JAK1 (Homo sapiens, UniProt P23458); assay: JAK1 enzyme activity assay (Thermo Fisher Selectscreen, Z-lyte); assay type: biochemical; conditions: read-out: JAK1 Inhibition IC50
T1 construct: purchased Thermo Fisher Scientific (SelectScreen service)
Experimental: (§1) The inhibitory potency of candidate compounds of JAK1, JAK2, and Tyk-2 was done at Thermo Fisher Scientific in their Selectscreen using a Z-lyte assay. Following are the assay details for each enzyme.
JAK1: The 2×JAK-enzyme/Tyr 06 mixture is prepared in 50 mM HEPES pH 6.5, 0.01% BRIJ-35, 10 mM MgCl2, 1 mM EGTA, 0.02% NaN3. The final 10 μL of the Kinase Reaction consists of 21.2-91.5 ng JAK1 and 2 μM Tyr 06 in 50 mM HEPES pH 7.0, 0.01% BRIJ-35, 10 mM MgCl2, 1 mM EGTA, 0.01% NaN3. After the one hour Kinase Reaction incubation, 5 μL of a 1:128 dilution of Development Reagent is added.
(§2) Data reduction for JAK1, JAK2 and TYK2 is done the same, independent of the enzyme run. In summary, background signal is defined in the absence of enzyme and uninhibited signal is defined in the presence of vehicle (2% DMSO) alone. Compounds were evaluated in an 11 point dose-response ranging from […] to 0.34 nM. IC50 values of compounds are determined using a 4 parameter logistical fit of emission ratio as a function of the concentration of compound.

[2] = test system: IL-2 stimulated STAT5 phosphorylation on Tyr694 (JAK1/3); assay: JAK1/3 cellular target modulation: IL-2 stimulated phospho-STAT5 in human PBMC; assay type: cell-based; conditions: IL-2 25 ng/ml, read-out: IL2-STAT5 IC50
Text: (§3) Target modulation was based upon the ability of a compound to inhibit JAK isoform specific phosphorylation of selected substrates. IL-2 stimulated STAT5 phosphorylation on Tyr694 was used to assess JAK1/3 compound selectivity. GM-CSF stimulated STAT5 phosphorylation on Tyr694 was used to assess JAK2 compound selectivity. IFNγ stimulated STAT1 phosphorylation on Tyr701 was used to assess JAK1/2 compound selectivity. IL-12 stimulated STAT4 phosphorylation on Tyr693 was used to assess JAK2/TYK2 compound selectivity. For all four assays, human PBMC from frozen stocks were thawed, pelleted, resuspended in complete media (90% RPMI, 10% heat inactivated FBS, 10 mM HEPES, 47 μM 2-ME, pen/strep) and placed in wells of a 96 well V-bottom plate at 200,000 per well in 120 μl complete media. Compounds were added as 15 μl per well of 10× working stock solutions in complete media with 1% DMSO (or medium with 1% DMSO for controls) and placed on a plate shaker in a 37° C. incubator with 5% CO2 for 1 hour with gentle shaking (setting of 3). Stimulation used the addition of soluble cytokines. For the JAK1/3 phospho-STAT5 assay, 15 μl of 10× working stock recombinant human IL-2 was added to a final concentration of 25 ng/ml. For the JAK2 phospho-STAT5 assay, 15 μl of 10× working stock recombinant human GM-CSF was added to a final concentration of 5 ng/ml. For the JAK1/2 phospho-STAT1 assay, 15 μl of 10× working stock of recombinant human IFNγ was added to a final concentration of 10 ng/ml. For the JAK2/TYK2 phospho-STAT4 assay, 15 μl of 10× working stock of recombinant human IL-12 was added to a final concentration of 1.7 ng/ml. Plates were then placed back on the plate shaker in the incubator for an additional 5, 5, 10, and 25 minutes respectively upon which the plates were removed from the incubator, sealed with a plate sealer and the cells pelleted at 400×g for 5 minutes. After pelleting, the media was removed by aspiration and the cells were lysed in assay specific cell lysis buffer. The levels of phospho-STAT5 were determined using a Phospho (Tyr694)STAT5a,b Whole Cell Lysate kit from Meso Scale Discovery. Levels of phospho-STAT1 were determined using a CST-PathScan Phospho-STAT1 (Tyr701) Sandwich ELISA kit. Levels of phospho-STAT4 were determined using a Phospho-STAT4 (Tyr693) Whole Cell Lysate kit from Meso Scale Discovery.

[3] = test system: IFNγ stimulated STAT1 phosphorylation on Tyr701 (JAK1/2); assay: JAK1/2 cellular target modulation: IFNγ stimulated phospho-STAT1 in human PBMC; assay type: cell-based; conditions: IFNγ 10 ng/ml, read-out: Infγ-STAT1 IC50
Text: as §3

[4] = target: T2, JAK2 (Homo sapiens, UniProt O60674); assay: JAK2 enzyme activity assay (Thermo Fisher Selectscreen, Z-lyte); assay type: biochemical; conditions: read-out: JAK2 Inhibition IC50
T2 construct: purchased Thermo Fisher Scientific (SelectScreen service)
Experimental: as §1
JAK2: The 2×JAK2/Tyr 06 mixture is prepared in 50 mM HEPES pH 7.5, 0.01% BRIJ-35, 10 mM MgCl2, 1 mM EGTA. The final 10 μL Kinase Reaction consists of 0.12-0.5 ng JAK2 and 2 μM Tyr 06 in 50 mM HEPES pH 7.5, 0.01% BRIJ-35, 10 mM MgCl2, 1 mM EGTA. After the one hour Kinase Reaction incubation, 5 μL of a 1:128 dilution of Development Reagent A is added.
as §2

[5] = target: T3, Tyk-2 (Homo sapiens, UniProt P29597); assay: Tyk-2 enzyme activity assay (Thermo Fisher Selectscreen, Z-lyte); assay type: biochemical; conditions: read-out: Tyk-2 Inhibition IC50
T3 construct: purchased Thermo Fisher Scientific (SelectScreen service)
Experimental: as §1
TYK2: The 2×TYK2/Tyr 03 mixture is prepared in 50 mM HEPES pH 6.5, 0.01% BRIJ-35, 10 mM MgCl2, 1 mM EGTA, 0.02% NaN3. The final 10 μL Kinase Reaction consists of 3.75-15 ng TYK2 and 2 μM Tyr 03 in 50 mM HEPES pH 7.0, 0.01% BRIJ-35, 10 mM MgCl2, 1 mM EGTA, 0.01% NaN3. After the one hour KinaseReaction incubation, 5 μL of a 1:4096 dilution of Development Reagent A is added.
as §2

[6] = target: T4, JAK3 (a.a. 781-1124) (Homo sapiens, UniProt P52333); assay: JAK3 enzyme activity assay (SRCtide phosphorylation, Caliper); assay type: biochemical; conditions: 1 uM ATP; read-out: JAK3 Inhibition IC50
T4 construct: JAK3 (a.a. 781-1124, ThermoFisher); purchased ThermoFisher
Experimental: The activity of JAK3 (a.a. 781-1124, ThermoFisher) was quantified by measuring the phosphorylation of SRCtide (FAM-GEEPLYWSFPAKKK-NH2). Kinase reactions were run in a 384-well Greiner plate with 2% final DMSO concentration under the buffer conditions of 20 mM HEPES, pH 7.5, 10 mM MgCl2, 0.01% BSA, and 0.0005% Tween-20. The kinase reaction components were 2.5 nM JAK3, 1 μM SRCtide peptide and 1 uM ATP. Examples were tested in dose-response starting at […] (11 concentrations, 3-fold serial dilution, duplicate reactions). The reactions were incubated at room temperature for 40 minutes, then stopped by adding a 1:1 volume of 30 mM EDTA in 20 mM HEPES, pH 7.5 (15 mM EDTA final). After the reaction was stopped, the phosphorylated and unphosphorylated peptides were separated and quantified using a Caliper LC3000/EZ-Reader system and HTS Well Analyzer Software (Caliper, A PerkinElmer Company, Hopkinton, Mass.). GraFit (Erithacus Software Ltd., Horley, U.K.) was used to calculate inhibitor potency by fitting dose-response data to the 4-parameter logistical IC50 equation.

[7] = test system: IL-12 stimulated STAT4 phosphorylation on Tyr693 (JAK2/TYK2); assay: JAK2/TYK2 cellular target modulation: IL-12 stimulated phospho-STAT4 in human PBMC; assay type: cell-based; conditions: IL-12 1.7 ng/ml, read-out: IL12-STAT4 IC50
Text: as §3

T2 sequence (O60674 whole entry): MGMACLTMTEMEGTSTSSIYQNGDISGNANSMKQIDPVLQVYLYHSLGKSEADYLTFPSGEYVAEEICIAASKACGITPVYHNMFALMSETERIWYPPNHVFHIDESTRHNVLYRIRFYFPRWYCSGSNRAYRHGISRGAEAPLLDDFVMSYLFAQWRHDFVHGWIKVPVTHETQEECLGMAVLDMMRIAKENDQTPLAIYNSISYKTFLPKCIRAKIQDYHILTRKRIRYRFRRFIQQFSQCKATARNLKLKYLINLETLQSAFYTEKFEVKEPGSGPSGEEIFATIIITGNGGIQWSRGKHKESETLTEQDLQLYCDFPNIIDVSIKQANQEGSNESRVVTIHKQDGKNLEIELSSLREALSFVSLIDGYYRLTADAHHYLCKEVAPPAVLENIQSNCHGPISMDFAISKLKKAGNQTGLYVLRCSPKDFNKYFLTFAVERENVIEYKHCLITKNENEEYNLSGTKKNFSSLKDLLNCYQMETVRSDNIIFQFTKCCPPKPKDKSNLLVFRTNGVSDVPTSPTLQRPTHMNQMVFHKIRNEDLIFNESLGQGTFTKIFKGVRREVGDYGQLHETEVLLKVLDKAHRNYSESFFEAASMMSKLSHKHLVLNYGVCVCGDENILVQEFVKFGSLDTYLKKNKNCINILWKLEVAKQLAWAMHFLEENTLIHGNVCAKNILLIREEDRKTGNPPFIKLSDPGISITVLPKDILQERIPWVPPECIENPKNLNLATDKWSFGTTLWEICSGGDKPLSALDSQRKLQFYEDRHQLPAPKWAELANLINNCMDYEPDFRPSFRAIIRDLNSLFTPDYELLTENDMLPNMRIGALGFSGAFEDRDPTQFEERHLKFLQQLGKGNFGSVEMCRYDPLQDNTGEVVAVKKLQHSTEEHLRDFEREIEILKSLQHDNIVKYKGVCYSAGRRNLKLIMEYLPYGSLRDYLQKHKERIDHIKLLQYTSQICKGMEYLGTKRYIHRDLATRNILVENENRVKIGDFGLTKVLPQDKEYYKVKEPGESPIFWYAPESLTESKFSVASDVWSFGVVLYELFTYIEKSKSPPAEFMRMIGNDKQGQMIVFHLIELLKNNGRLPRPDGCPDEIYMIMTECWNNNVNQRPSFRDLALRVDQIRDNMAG
T3 sequence (P29597 whole entry): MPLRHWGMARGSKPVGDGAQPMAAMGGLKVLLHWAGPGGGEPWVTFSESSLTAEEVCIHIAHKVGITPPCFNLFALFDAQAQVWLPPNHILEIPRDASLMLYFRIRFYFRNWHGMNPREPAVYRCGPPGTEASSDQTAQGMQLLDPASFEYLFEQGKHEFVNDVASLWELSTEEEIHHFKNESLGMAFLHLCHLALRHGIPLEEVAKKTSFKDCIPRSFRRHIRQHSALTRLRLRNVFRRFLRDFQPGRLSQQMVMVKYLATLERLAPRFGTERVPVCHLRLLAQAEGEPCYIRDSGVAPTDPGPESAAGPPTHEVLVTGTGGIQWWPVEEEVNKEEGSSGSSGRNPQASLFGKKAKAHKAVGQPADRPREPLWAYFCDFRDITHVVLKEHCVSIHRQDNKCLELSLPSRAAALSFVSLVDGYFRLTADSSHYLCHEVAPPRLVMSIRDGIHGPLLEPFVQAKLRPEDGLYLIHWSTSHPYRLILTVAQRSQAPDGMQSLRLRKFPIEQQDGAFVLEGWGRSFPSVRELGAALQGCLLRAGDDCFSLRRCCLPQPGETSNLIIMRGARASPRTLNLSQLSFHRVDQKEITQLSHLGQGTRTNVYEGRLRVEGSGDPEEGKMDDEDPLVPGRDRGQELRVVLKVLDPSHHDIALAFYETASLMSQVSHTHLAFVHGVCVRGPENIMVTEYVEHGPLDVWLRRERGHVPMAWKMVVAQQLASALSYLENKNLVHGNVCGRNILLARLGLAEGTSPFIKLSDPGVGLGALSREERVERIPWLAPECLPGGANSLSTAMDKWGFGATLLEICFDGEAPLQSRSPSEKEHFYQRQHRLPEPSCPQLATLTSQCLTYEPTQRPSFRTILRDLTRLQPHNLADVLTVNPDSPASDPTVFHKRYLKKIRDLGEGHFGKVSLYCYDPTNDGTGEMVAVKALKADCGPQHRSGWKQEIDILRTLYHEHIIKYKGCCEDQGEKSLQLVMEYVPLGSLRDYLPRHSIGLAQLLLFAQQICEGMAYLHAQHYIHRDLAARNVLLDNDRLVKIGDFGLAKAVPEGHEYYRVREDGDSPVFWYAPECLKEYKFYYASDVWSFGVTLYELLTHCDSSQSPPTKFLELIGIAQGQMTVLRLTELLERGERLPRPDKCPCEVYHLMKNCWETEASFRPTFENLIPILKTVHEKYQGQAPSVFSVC
T1 sequence (P23458 whole entry): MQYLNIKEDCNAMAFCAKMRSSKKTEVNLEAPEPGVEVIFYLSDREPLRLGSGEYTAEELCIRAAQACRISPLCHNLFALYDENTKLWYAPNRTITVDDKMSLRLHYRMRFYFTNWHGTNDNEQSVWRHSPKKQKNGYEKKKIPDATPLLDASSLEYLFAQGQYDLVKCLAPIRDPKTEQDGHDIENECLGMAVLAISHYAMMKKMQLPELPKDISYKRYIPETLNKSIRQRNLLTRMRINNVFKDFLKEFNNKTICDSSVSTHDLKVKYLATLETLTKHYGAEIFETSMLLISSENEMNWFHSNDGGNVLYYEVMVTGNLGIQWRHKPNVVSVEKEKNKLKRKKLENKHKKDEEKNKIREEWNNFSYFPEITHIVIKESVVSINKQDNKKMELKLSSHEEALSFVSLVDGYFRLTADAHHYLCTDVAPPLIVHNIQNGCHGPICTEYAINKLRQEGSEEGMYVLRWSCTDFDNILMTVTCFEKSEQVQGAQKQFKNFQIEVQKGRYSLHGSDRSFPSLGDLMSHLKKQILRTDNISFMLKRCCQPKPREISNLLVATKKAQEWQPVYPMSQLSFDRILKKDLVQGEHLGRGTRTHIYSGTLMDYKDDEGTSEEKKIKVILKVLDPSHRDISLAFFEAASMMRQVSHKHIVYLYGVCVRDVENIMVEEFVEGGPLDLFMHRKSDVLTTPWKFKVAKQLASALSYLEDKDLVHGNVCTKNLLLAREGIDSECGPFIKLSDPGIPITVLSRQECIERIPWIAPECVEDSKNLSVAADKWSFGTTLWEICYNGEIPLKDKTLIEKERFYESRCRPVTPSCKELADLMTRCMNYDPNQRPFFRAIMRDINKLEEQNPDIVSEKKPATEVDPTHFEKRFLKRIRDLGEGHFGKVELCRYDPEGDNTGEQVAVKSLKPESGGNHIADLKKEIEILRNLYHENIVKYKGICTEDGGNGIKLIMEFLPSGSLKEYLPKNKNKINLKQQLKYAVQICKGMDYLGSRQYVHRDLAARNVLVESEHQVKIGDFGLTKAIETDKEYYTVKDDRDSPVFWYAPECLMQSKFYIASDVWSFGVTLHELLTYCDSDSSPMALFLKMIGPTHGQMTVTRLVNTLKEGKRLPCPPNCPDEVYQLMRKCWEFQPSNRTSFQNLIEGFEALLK
T4 sequence (P52333 781-1124): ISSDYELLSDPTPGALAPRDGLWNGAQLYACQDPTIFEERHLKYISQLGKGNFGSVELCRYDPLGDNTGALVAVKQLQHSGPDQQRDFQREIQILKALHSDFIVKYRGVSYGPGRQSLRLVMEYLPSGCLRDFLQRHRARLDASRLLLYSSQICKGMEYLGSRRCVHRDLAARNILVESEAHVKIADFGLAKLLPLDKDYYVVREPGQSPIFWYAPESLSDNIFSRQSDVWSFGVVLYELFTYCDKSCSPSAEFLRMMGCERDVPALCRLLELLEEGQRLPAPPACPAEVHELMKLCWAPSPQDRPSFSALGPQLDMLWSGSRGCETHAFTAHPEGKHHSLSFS

Compound | IC50 [1] | IC50 [2] | IC50 [3] | IC50 [4] | IC50 [5] | IC50 [6] | IC50 [7]
CCOC(=O)c1cnc2[nH]ccc2c1NC1CC(NS(=O)(=O)c2cc(C#N)ccn2)C1 (mixture of isomers) [Example 1, ethyl 4-((3-((4-cyanopyridine)-2-sulfonamido)cyclobutyl)amino)-1H-pyrrolo[2,3-b]pyridine-5-carboxylate] | 0.01 to 0.1 µM | 0.1 to 1 µM | > 1 µM | 0.1 to 1 µM | 0.1 to 1 µM | 0.01 to 0.1 µM | 
CCOC(=O)c1cnc2[nH]ccc2c1N[C@H]1C[C@@H](NS(=O)(=O)c2cccc(C#N)c2)C1 [Example 2, cis-Ethyl 4-((3-((3-cyanophenyl)sulfonamido)cyclobutyl)amino)-1H-pyrrolo[2,3-b]pyridine-5-carboxylate] | ≤ 0.01 µM | ≤ 0.1 µM | 0.1 to 1 µM | 0.01 to 0.1 µM | 0.01 to 0.1 µM | 0.01 to 0.1 µM | 
CCOC(=O)c1cnc2[nH]ccc2c1N[C@H]1C[C@H](NS(=O)(=O)c2cccc(C#N)c2)C1 [Example 3, trans-Ethyl 4-((3-((3-cyanophenyl)sulfonamido)cyclobutyl)amino)-1H-pyrrolo[2,3-b]pyridine-5-carboxylate] | ≤ 0.01 µM | 0.1 to 1 µM | 0.1 to 1 µM | 0.01 to 0.1 µM | 0.01 to 0.1 µM | 0.01 to 0.1 µM | 
CCOC(=O)c1cnc2[nH]ccc2c1N[C@H]1C[C@H](NS(=O)(=O)c2cc(C#N)ccn2)C1 [Example 4, ethyl 4-(((1r,3r)-3-((4-cyanopyridine)-2-sulfonamido)cyclobutyl)amino)-1H-pyrrolo[2,3-b]pyridine-5-carboxylate] | 0.01 to 0.1 µM | > 1 µM |  | 0.01 to 0.1 µM | 0.1 to 1 µM | 0.01 to 0.1 µM | 
CCOC(=O)c1cnc2[nH]ccc2c1N[C@H]1C[C@@H](NS(=O)(=O)c2cc(C#N)ccn2)C1 [Example 5, ethyl 4-(((1s,3s)-3-((4-cyanopyridine)-2-sulfonamido)cyclobutyl)amino)-1H-pyrrolo[2,3-b]pyridine-5-carboxylate] | ≤ 0.01 µM | 0.1 to 1 µM | 0.1 to 1 µM | 0.01 to 0.1 µM | 0.01 to 0.1 µM | 0.01 to 0.1 µM | > 1 µM
N#Cc1cccc(S(=O)(=O)N[C@H]2C[C@@H](Nc3c(-c4ncco4)cnc4[nH]ccc34)C2)c1 [Example 7, 3-cyano-N-((1s,3s)-3-((5-(oxazol-2-yl)-1H-pyrrolo[2,3-b]pyridin-4-yl)amino)cyclobutyl)benzenesulfonamide] | ≤ 0.01 µM | 0.1 to 1 µM | 0.1 to 1 µM | ≤ 0.01 µM | 0.01 to 0.1 µM | 0.01 to 0.1 µM | > 1 µM
CCCS(=O)(=O)N[C@H]1C[C@@H](Nc2c(-c3ncco3)cnc3[nH]ccc23)C1 [Example 65, N-((1s,3s)-3-((5-(1,3-oxazol-2-yl)-1H-pyrrolo[2,3-b]pyridin-4-yl)amino)cyclobutyl)propane-1-sulfonamide] | ≤ 0.01 µM | ≤ 0.1 µM |  | ≤ 0.01 µM | 0.01 to 0.1 µM | 0.01 to 0.1 µM | > 1 µM
CNC(=O)c1ccnc(-c2cnc3[nH]ccc3c2N[C@H]2C[C@@H](NS(=O)(=O)c3cc(C#N)ccn3)C2)c1 [Example 67, 2-(4-(((1s,3s)-3-((4-cyanopyridine)-2-sulfonamido)cyclobutyl)amino)-1H-pyrrolo[2,3-b]pyridin-5-yl)-N-methylisonicotinamide] | ≤ 0.01 µM | 0.1 to 1 µM | > 1 µM | 0.01 to 0.1 µM | 0.01 to 0.1 µM | 0.1 to 1 µM | 
CCCS(=O)(=O)N[C@H]1C[C@@H](Nc2c(-c3cc(C(=O)NC)ccn3)cnc3[nH]ccc23)C1 [Example 68, N-methyl-2-(4-(((1s,3s)-3-(propylsulfonamido)cyclobutyl)amino)-1H-pyrrolo[2,3-b]pyridin-5-yl)isonicotinamide] | 0.01 to 0.1 µM | > 1 µM |  | 0.1 to 1 µM | 0.1 to 1 µM | 0.01 to 0.1 µM | 
CCCS(=O)(=O)N[C@H]1C[C@@H](Nc2c(-c3nnco3)cnc3[nH]ccc23)C1 [Example 80, N-((1s,3s)-3-((5-(1,3,4-oxadiazol-2-yl)-1H-pyrrolo[2,3-b]pyridin-4-yl)amino)cyclobutyl)propane-1-sulfonamide] | 0.01 to 0.1 µM | 0.1 to 1 µM |  | 0.01 to 0.1 µM | 0.1 to 1 µM | 0.01 to 0.1 µM | > 1 µM
Cc1nnc(-c2cnc3[nH]ccc3c2N[C@H]2C[C@@H](NS(=O)(=O)c3cc(C#N)ccn3)C2)o1 [Example 83, 4-cyano-N-((1s,3s)-3-((5-(5-methyl-1,3,4-oxadiazol-2-yl)-1H-pyrrolo[2,3-b]pyridin-4-yl)amino)cyclobutyl)pyridine-2-sulfonamide] | 0.1 to 1 µM |  |  | 0.1 to 1 µM | > 1 µM | > 1 µM | 
